The target of the assay is Sodium-dependent serotonin transporter (Rattus norvegicus, UniProt P31652). Briefly: In vitro Binding Affinity Assay. The note with it: pH 7.7; 25 °C. As to the method: The assay was performed in accordance with the method described by Owens et al. with slight modifications. Rat cerebral cortex was homogenized in 30 volumes of ice-cold 50mM Tris-HCl containing 150mM NaCl and 5mM KCl, pH 7.7, at 25°C and centrifuged at 20,000 x g for 20 min. Pellet was resuspended in 30 volumes of buffer and centrifuged again for 2 more times. The mixture of 240uL of the tissue suspension, 30uL of 1µM imipramine, 30uL of 1nM [3H]-citalopram and 100µL of the analyzed compound (10^-10 to 10^-4M) were incubated at 22°C for 1 h. Incubations were terminated by vacuum filtration and washed twice with 100µL of ice-cold buffer. The radioactivity was measured using a WALLAC 1409 DSA liquid scintillation counter.
Sodium-dependent serotonin transporter, sequence (P31652 whole entry): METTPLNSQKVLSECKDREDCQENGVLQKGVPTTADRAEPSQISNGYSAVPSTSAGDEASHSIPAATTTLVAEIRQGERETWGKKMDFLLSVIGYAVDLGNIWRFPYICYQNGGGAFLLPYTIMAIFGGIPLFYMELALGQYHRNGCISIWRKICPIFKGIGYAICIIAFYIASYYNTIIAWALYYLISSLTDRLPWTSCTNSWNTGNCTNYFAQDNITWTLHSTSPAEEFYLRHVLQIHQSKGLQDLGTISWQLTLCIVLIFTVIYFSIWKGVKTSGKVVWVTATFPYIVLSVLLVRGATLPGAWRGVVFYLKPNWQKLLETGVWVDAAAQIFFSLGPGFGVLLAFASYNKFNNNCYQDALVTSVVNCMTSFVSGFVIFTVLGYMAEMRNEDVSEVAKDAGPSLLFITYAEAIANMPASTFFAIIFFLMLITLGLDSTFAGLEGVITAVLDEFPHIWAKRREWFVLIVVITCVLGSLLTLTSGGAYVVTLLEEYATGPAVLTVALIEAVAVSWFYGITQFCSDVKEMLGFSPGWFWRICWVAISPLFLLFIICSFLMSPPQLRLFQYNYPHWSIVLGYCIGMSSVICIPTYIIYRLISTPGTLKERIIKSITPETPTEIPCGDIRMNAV

In the case of `CCCCCCCCCCCN1CCN(c2ccc3cc([N+](=O)[O-])ccc3n2)CC1` [2-(4-Undecyl-piperazin-1-yl)-6-nitroquinoline (11)], the Ki was 12.6 nM. The figure for `CCCCCCN1CCN(c2ccc3cc([N+](=O)[O-])ccc3n2)CC1` [2-(4-Hexyl-piperazin-1-yl)-6-nitroquinoline (6)] is 72.9 nM; for `CCCN1CCN(c2ccc3cc([N+](=O)[O-])ccc3n2)CC1` [2-(4-Propyl-piperazin-1-yl)-6-nitroquinoline (3)] it is 496 nM. `CCCCCCCCCCN1CCN(c2ccc3cc([N+](=O)[O-])ccc3n2)CC1` [2-(4-Decyl-piperazin-1-yl)-6-nitroquinoline (10)]: the Ki came to 4.5 nM. The figure for `CCCCN1CCN(c2ccc3cc([N+](=O)[O-])ccc3n2)CC1` [2-(4-Butyl-piperazin-1-yl)-6-nitroquinoline (4)] is 24 nM; for `CCN1CCN(c2ccc3cc([N+](=O)[O-])ccc3n2)CC1` [2-(4-Ethyl-piperazin-1-yl)-6-nitroquinoline (2)] it is 86.1 nM. The figure for `CCCCCCCCCN1CCN(c2ccc3cc([N+](=O)[O-])ccc3n2)CC1` [2-(4-Nonyl-piperazin-1-yl)-6-nitroquinoline (9)] is 1.8 nM. The figure for `CCCCCCCCCCCCN1CCN(c2ccc3cc([N+](=O)[O-])ccc3n2)CC1` [2-(4-Dodecyl-piperazin-1-yl)-6-nitroquinoline (12)] is 16.1 nM; for `CCCCCCCCN1CCN(c2ccc3cc([N+](=O)[O-])ccc3n2)CC1` [2-(4-Octyl-piperazin-1-yl)-6-nitroquinoline (8)] it is 20.8 nM; for `CN1CCN(c2ccc3cc([N+](=O)[O-])ccc3n2)CC1` [2-(4-Methyl-piperazin-1-yl)-6-nitroquinoline (1)] it is 1300 nM. In turn, `CCCCCN1CCN(c2ccc3cc([N+](=O)[O-])ccc3n2)CC1` [2-(4-Pentyl-piperazin-1-yl)-6-nitroquinoline (5)] had a Ki of 80.5 nM. This Ki is about 16-fold lower than that of the molecule before.

On to `CCCCCCCN1CCN(c2ccc3cc([N+](=O)[O-])ccc3n2)CC1` [2-(4-Heptyl-piperazin-1-yl)-6-nitroquinoline (7)], for which the Ki was determined as 54.1 nM. This Ki and that of the molecule before are within 1.5-fold of each other.

These data come from BindingDB's records for doi:10.1111/cbdd.12116 (University of Troms&#163, 2013).
